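Test compounds were applied to cells in 96-well plates for 48 hours at 5 doses. At the GI50, growth is halved. TGI: concentration producing complete growth inhibition.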
Legend:
Assay in all cases: DTP human tumour cell line panel, 48 h; in the data active = GI50 below about 0.43 µM; inactive = the rest
786-0 renal = system: 786-0 renal
A498 renal = system: A498 renal
A549 NSCLC = system: A549 NSCLC
ACHN renal = system: ACHN renal
CAKI-1 renal = system: CAKI-1 renal
CCRF-CEM leukemia = system: CCRF-CEM leukemia
COLO 205 colon = system: COLO 205 colon
DU-145 prostate = system: DU-145 prostate
EKVX NSCLC = system: EKVX NSCLC
HCC-2998 colon = system: HCC-2998 colon
HCT-116 colon = system: HCT-116 colon
HCT-15 colon = system: HCT-15 colon
HL-60(TB) leukemia = system: HL-60(TB) leukemia
HOP-62 NSCLC = system: HOP-62 NSCLC
HS 578T breast = system: HS 578T breast
HT29 colon = system: HT29 colon
IGROV1 ovarian = system: IGROV1 ovarian
K-562 leukemia = system: K-562 leukemia
KM12 colon = system: KM12 colon
LOX IMVI melanoma = system: LOX IMVI melanoma
M14 melanoma = system: M14 melanoma
MALME-3M melanoma = system: MALME-3M melanoma
MCF7 breast = system: MCF7 breast
MDA-MB-231 breast = system: MDA-MB-231 breast
MDA-MB-435 = system: MDA-MB-435
MDA-N = system: MDA-N
MOLT-4 leukemia = system: MOLT-4 leukemia
NCI-H226 lung = system: NCI-H226 lung
NCI-H23 lung = system: NCI-H23 lung
NCI-H460 lung = system: NCI-H460 lung
NCI-H522 lung = system: NCI-H522 lung
NCI/ADR-RES ovarian = system: NCI/ADR-RES ovarian
OVCAR-3 ovarian = system: OVCAR-3 ovarian
OVCAR-4 ovarian = system: OVCAR-4 ovarian
OVCAR-5 ovarian = system: OVCAR-5 ovarian
OVCAR-8 ovarian = system: OVCAR-8 ovarian
PC-3 prostate = system: PC-3 prostate
RPMI-8226 leukemia = system: RPMI-8226 leukemia
RXF 393 renal = system: RXF 393 renal
SF-268 CNS = system: SF-268 CNS
SF-295 CNS = system: SF-295 CNS
SF-539 CNS = system: SF-539 CNS
SK-MEL-2 melanoma = system: SK-MEL-2 melanoma
SK-MEL-28 melanoma = system: SK-MEL-28 melanoma
SK-MEL-5 melanoma = system: SK-MEL-5 melanoma
SK-OV-3 ovarian = system: SK-OV-3 ovarian
SN12C renal = system: SN12C renal
SNB-19 CNS = system: SNB-19 CNS
SNB-75 CNS = system: SNB-75 CNS
SR leukemia = system: SR leukemia
SW-620 colon = system: SW-620 colon
T-47D breast = system: T-47D breast
TK-10 renal = system: TK-10 renal
U251 CNS = system: U251 CNS
UACC-257 melanoma = system: UACC-257 melanoma
UACC-62 melanoma = system: UACC-62 melanoma
UO-31 renal = system: UO-31 renal
BT-549 breast = system: BT-549 breast
HOP-92 NSCLC = system: HOP-92 NSCLC

O=C1[C@H](c2ccccc2)C2c3ccccc3CCN12 (stereo partly drawn)
> 100 µM: TGI (786-0 renal) | TGI (A498 renal) | TGI (A549 NSCLC) | TGI (ACHN renal) | TGI (CAKI-1 renal) | TGI (CCRF-CEM leukemia) | TGI (COLO 205 colon) | TGI (DU-145 prostate) | TGI (EKVX NSCLC) | TGI (HCC-2998 colon) | TGI (HCT-116 colon) | TGI (HCT-15 colon) | TGI (HL-60(TB) leukemia) | TGI (HOP-62 NSCLC) | TGI (HS 578T breast) | TGI (HT29 colon) | TGI (IGROV1 ovarian) | TGI (K-562 leukemia) | TGI (KM12 colon) | TGI (LOX IMVI melanoma) | TGI (M14 melanoma) | TGI (MALME-3M melanoma) | TGI (MCF7 breast) | TGI (MDA-MB-231 breast) | TGI (MDA-MB-435) | TGI (MDA-N) | TGI (MOLT-4 leukemia) | TGI (NCI-H226 lung) | TGI (NCI-H23 lung) | TGI (NCI-H460 lung) | TGI (NCI-H522 lung) | TGI (NCI/ADR-RES ovarian) | TGI (OVCAR-3 ovarian) | TGI (OVCAR-4 ovarian) | TGI (OVCAR-5 ovarian) | TGI (OVCAR-8 ovarian) | TGI (PC-3 prostate) | TGI (RPMI-8226 leukemia) | TGI (RXF 393 renal) | TGI (SF-268 CNS) | TGI (SF-295 CNS) | TGI (SF-539 CNS) | TGI (SK-MEL-2 melanoma) | TGI (SK-MEL-28 melanoma) | TGI (SK-MEL-5 melanoma) | TGI (SK-OV-3 ovarian) | TGI (SN12C renal) | TGI (SNB-19 CNS) | TGI (SNB-75 CNS) | TGI (SR leukemia) | TGI (SW-620 colon) | TGI (T-47D breast) | TGI (TK-10 renal) | TGI (U251 CNS) | TGI (UACC-257 melanoma) | TGI (UACC-62 melanoma) | TGI (UO-31 renal)
inactive: GI50 (786-0 renal) > 100 µM | GI50 (A498 renal) > 100 µM | GI50 (A549 NSCLC) > 100 µM | GI50 (ACHN renal) > 100 µM | GI50 (CAKI-1 renal) > 100 µM | GI50 (CCRF-CEM leukemia) > 100 µM | GI50 (COLO 205 colon) > 100 µM | GI50 (DU-145 prostate) > 100 µM | GI50 (EKVX NSCLC) > 100 µM | GI50 (HCC-2998 colon) > 100 µM | GI50 (HCT-116 colon) > 100 µM | GI50 (HCT-15 colon) > 100 µM | GI50 (HL-60(TB) leukemia) > 100 µM | GI50 (HOP-62 NSCLC) > 100 µM | GI50 (HS 578T breast) > 100 µM | GI50 (HT29 colon) > 100 µM | GI50 (IGROV1 ovarian) > 100 µM | GI50 (K-562 leukemia) > 100 µM | GI50 (KM12 colon) > 100 µM | GI50 (LOX IMVI melanoma) > 100 µM | GI50 (M14 melanoma) > 100 µM | GI50 (MALME-3M melanoma) > 100 µM | GI50 (MCF7 breast) > 100 µM | GI50 (MDA-MB-231 breast) > 100 µM | GI50 (MDA-MB-435) > 100 µM | GI50 (MDA-N) > 100 µM | GI50 (MOLT-4 leukemia) > 100 µM | GI50 (NCI-H226 lung) > 100 µM | GI50 (NCI-H23 lung) > 100 µM | GI50 (NCI-H460 lung) > 100 µM | GI50 (NCI-H522 lung) > 100 µM | GI50 (NCI/ADR-RES ovarian) > 100 µM | GI50 (OVCAR-3 ovarian) > 100 µM | GI50 (OVCAR-4 ovarian) > 100 µM | GI50 (OVCAR-5 ovarian) > 100 µM | GI50 (OVCAR-8 ovarian) > 100 µM | GI50 (PC-3 prostate) > 100 µM | GI50 (RPMI-8226 leukemia) > 100 µM | GI50 (RXF 393 renal) > 100 µM | GI50 (SF-268 CNS) > 100 µM | GI50 (SF-295 CNS) > 100 µM | GI50 (SF-539 CNS) > 100 µM | GI50 (SK-MEL-2 melanoma) > 100 µM | GI50 (SK-MEL-28 melanoma) > 100 µM | GI50 (SK-MEL-5 melanoma) > 100 µM | GI50 (SK-OV-3 ovarian) > 100 µM | GI50 (SN12C renal) > 100 µM | GI50 (SNB-19 CNS) > 100 µM | GI50 (SR leukemia) > 100 µM | GI50 (SW-620 colon) > 100 µM | GI50 (T-47D breast) > 100 µM | GI50 (TK-10 renal) > 100 µM | GI50 (U251 CNS) > 100 µM | GI50 (UACC-257 melanoma) > 100 µM | GI50 (UACC-62 melanoma) > 100 µM

CSc1ccc2c(c1)C(=O)c1c-2n(CCCN=[N+]=[N-])c(=O)c2cc([N+](=O)[O-])ccc12
10.9 µM: TGI (CCRF-CEM leukemia)
> 100 µM: TGI (A549 NSCLC) | TGI (ACHN renal) | TGI (BT-549 breast) | TGI (COLO 205 colon) | TGI (DU-145 prostate) | TGI (EKVX NSCLC) | TGI (HCT-116 colon) | TGI (HCT-15 colon) | TGI (HOP-92 NSCLC) | TGI (HS 578T breast) | TGI (HT29 colon) | TGI (IGROV1 ovarian) | TGI (KM12 colon) | TGI (LOX IMVI melanoma) | TGI (M14 melanoma) | TGI (MCF7 breast) | TGI (MDA-MB-231 breast) | TGI (MDA-MB-435) | TGI (NCI-H226 lung) | TGI (NCI-H23 lung) | TGI (NCI-H460 lung) | TGI (NCI-H522 lung) | TGI (NCI/ADR-RES ovarian) | TGI (OVCAR-4 ovarian) | TGI (OVCAR-5 ovarian) | TGI (OVCAR-8 ovarian) | TGI (PC-3 prostate) | TGI (RXF 393 renal) | TGI (SF-268 CNS) | TGI (SF-539 CNS) | TGI (SK-MEL-2 melanoma) | TGI (SK-MEL-28 melanoma) | TGI (SN12C renal) | TGI (SNB-19 CNS) | TGI (SW-620 colon) | TGI (T-47D breast) | TGI (TK-10 renal) | TGI (U251 CNS) | TGI (UACC-257 melanoma) | TGI (UO-31 renal)
> 22.3 µM: TGI (A498 renal)
16.4 µM: TGI (SK-MEL-5 melanoma)
29 µM: TGI (HOP-62 NSCLC)
> 89.5 µM: TGI (OVCAR-3 ovarian)
> 52.1 µM: TGI (SF-295 CNS)
> 79.7 µM: TGI (SNB-75 CNS)
> 40.2 µM: TGI (K-562 leukemia)
6.38 µM: TGI (MOLT-4 leukemia)
23.2 µM: TGI (RPMI-8226 leukemia)
> 88.7 µM: TGI (UACC-62 melanoma)
> 38.9 µM: TGI (MALME-3M melanoma)
> 66.5 µM: TGI (CAKI-1 renal)
14.6 µM: TGI (786-0 renal)
active: GI50 (CCRF-CEM leukemia) 0.239 µM | GI50 (MOLT-4 leukemia) 0.371 µM | GI50 (NCI-H460 lung) 0.322 µM | GI50 (SR leukemia) 0.2 µM
> 30.5 µM: TGI (SK-OV-3 ovarian)
5.8 µM: TGI (SR leukemia)
66 µM: TGI (HCC-2998 colon)
inactive: GI50 (786-0 renal) 1.65 µM | GI50 (A549 NSCLC) 3.25 µM | GI50 (ACHN renal) 0.528 µM | GI50 (CAKI-1 renal) 2.33 µM | GI50 (COLO 205 colon) > 23.7 µM | GI50 (DU-145 prostate) 1.73 µM | GI50 (EKVX NSCLC) > 100 µM | GI50 (HCC-2998 colon) 1.57 µM | GI50 (HCT-116 colon) 1.69 µM | GI50 (HCT-15 colon) > 87.1 µM | GI50 (HL-60(TB) leukemia) 1.17 µM | GI50 (HOP-62 NSCLC) 0.623 µM | GI50 (HOP-92 NSCLC) 5.24 µM | GI50 (HS 578T breast) > 61.1 µM | GI50 (HT29 colon) 4.3 µM | GI50 (IGROV1 ovarian) 8.86 µM | GI50 (K-562 leukemia) 1.99 µM | GI50 (LOX IMVI melanoma) 1.22 µM | GI50 (M14 melanoma) 1.29 µM | GI50 (MCF7 breast) 4.09 µM | GI50 (MDA-MB-231 breast) > 100 µM | GI50 (MDA-MB-435) 14.1 µM | GI50 (NCI-H226 lung) 8.74 µM | GI50 (NCI-H23 lung) 3.48 µM | GI50 (NCI-H522 lung) 6.01 µM | GI50 (NCI/ADR-RES ovarian) 3.15 µM | GI50 (OVCAR-3 ovarian) 8.87 µM | GI50 (OVCAR-4 ovarian) > 100 µM | GI50 (OVCAR-5 ovarian) > 76.6 µM | GI50 (OVCAR-8 ovarian) 7.97 µM | GI50 (PC-3 prostate) 5.58 µM | GI50 (RPMI-8226 leukemia) 1.72 µM | GI50 (RXF 393 renal) > 34.4 µM | GI50 (SF-268 CNS) 1.98 µM | GI50 (SF-295 CNS) 0.553 µM | GI50 (SF-539 CNS) 1.46 µM | GI50 (SK-MEL-2 melanoma) 66.7 µM | GI50 (SK-MEL-28 melanoma) 51.4 µM | GI50 (SK-MEL-5 melanoma) 2.56 µM | GI50 (SK-OV-3 ovarian) 0.861 µM | GI50 (SN12C renal) 1.63 µM | GI50 (SNB-19 CNS) 1.18 µM | GI50 (SNB-75 CNS) 7.42 µM | GI50 (SW-620 colon) 1.72 µM | GI50 (T-47D breast) 4.58 µM | GI50 (TK-10 renal) > 100 µM | GI50 (U251 CNS) 1.1 µM | GI50 (UACC-257 melanoma) 39.9 µM | GI50 (UACC-62 melanoma) 0.683 µM | GI50 (UO-31 renal) 1.62 µM

From PubChem BioAssay (NCI)
